{
  "source": "patent US20230085307A1",
  "about": "“PYRIDAZINONE COMPOUND AND HERBICIDE” (NISSAN CHEMICAL CORPORATION, priority 2019, published 2023)",
  "key": {"barnyard grass [1]": {"tested_on": "barnyard grass", "experiment": "Test Example 3: herbicidal effect by foliage application, Wagner pot (Table 18, symbol H)", "type": "in vivo, barnyard grass (Echinochloa crus-galli)", "conditions": "320 g/ha", "procedure,_shortened": "(§1)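 Plants were sown in alluvial soil held under 0.1–0.5 cm standing water and grown 14 days in a greenhouse at 25–30 °C. An emulsifiable formulation, water-diluted to the set dose, was then sprayed onto the foliage, and effects were scored three weeks later using previously defined criteria.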"}, "Chinese sprangletop": {"tested_on": "Chinese sprangletop", "experiment": "Test Example 3: herbicidal effect by foliage application, Wagner pot (Table 18, symbol D)", "type": "in vivo, chinese sprangletop (Leptochloa chinensis)", "conditions": "320 g/ha", "procedure,_shortened": "as §1"}, "rice flat sedge": {"tested_on": "rice flat sedge", "experiment": "Test Example 3: herbicidal effect by foliage application, Wagner pot (Table 18, symbol E)", "type": "in vivo, rice flat sedge (Cyperus iria)", "conditions": "320 g/ha", "procedure,_shortened": "as §1"}, "southern crabgrass [2]": {"tested_on": "southern crabgrass", "experiment": "Test Example 4: herbicidal effect by soil treatment (Table 19, symbol F)", "type": "in vivo, southern crabgrass (Digitaria ciliaris)", "conditions": "amount of applied herbicide 320 g/ha", "procedure,_shortened": "(§2)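 Step 1: sow seeds in sterilized diluvial soil, cover ~1.5 cm. Step 2: spray diluted emulsion onto soil surface at predetermined rate. Step 3: greenhouse, 25–30° C, three weeks. Step 4: grade effect on each plant by earlier criteria.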"}, "green foxtail [3]": {"tested_on": "green foxtail", "experiment": "Test Example 4: herbicidal effect by soil treatment (Table 19, symbol G)", "type": "in vivo, green foxtail (Setaria viridis)", "conditions": "amount of applied herbicide 320 g/ha", "procedure,_shortened": "as §2"}, "barnyard grass [4]": {"tested_on": "barnyard grass", "experiment": "Test Example 4: herbicidal effect by soil treatment (Table 19, symbol H)", "type": "in vivo, barnyard grass (Echinochloa crus-galli)", "conditions": "amount of applied herbicide 320 g/ha", "procedure,_shortened": "as §2"}, "wild oat [5]": {"tested_on": "wild oat", "experiment": "Test Example 4: herbicidal effect by soil treatment (Table 19, symbol I)", "type": "in vivo, wild oat (Avena fatua)", "conditions": "amount of applied herbicide 320 g/ha", "procedure,_shortened": "as §2"}, "blackgrass [6]": {"tested_on": "blackgrass", "experiment": "Test Example 4: herbicidal effect by soil treatment (Table 19, symbol J)", "type": "in vivo, blackgrass (Alopecurus myosuroides)", "conditions": "amount of applied herbicide 320 g/ha", "procedure,_shortened": "as §2"}, "Italian ryegrass [7]": {"tested_on": "Italian ryegrass", "experiment": "Test Example 4: herbicidal effect by soil treatment (Table 19, symbol K)", "type": "in vivo, Italian ryegrass (Lolium multiflorum)", "conditions": "amount of applied herbicide 320 g/ha", "procedure,_shortened": "as §2"}, "windgrass [8]": {"tested_on": "windgrass", "experiment": "Test Example 4: herbicidal effect by soil treatment (Table 19, symbol L)", "type": "in vivo, windgrass (Apera spica-venti)", "conditions": "amount of applied herbicide 320 g/ha", "procedure,_shortened": "as §2"}, "velvetleaf [9]": {"tested_on": "velvetleaf", "experiment": "Test Example 4: herbicidal effect by soil treatment (Table 19, symbol M)", "type": "in vivo, velvetleaf (Abutilon theophrasti)", "conditions": "amount of applied herbicide 320 g/ha", "procedure,_shortened": "as §2"}, "redroot pigweed [10]": {"tested_on": "redroot pigweed", "experiment": "Test Example 4: herbicidal effect by soil treatment (Table 19, symbol N)", "type": "in vivo, redroot pigweed (Amaranthus retroflexus)", "conditions": "amount of applied herbicide 320 g/ha", "procedure,_shortened": "as §2"}, "lambsquarters [11]": {"tested_on": "lambsquarters", "experiment": "Test Example 4: herbicidal effect by soil treatment (Table 19, symbol O)", "type": "in vivo, lambsquarters (Chenopodium album)", "conditions": "amount of applied herbicide 320 g/ha", "procedure,_shortened": "as §2"}, "chickweed [12]": {"tested_on": "chickweed", "experiment": "Test Example 4: herbicidal effect by soil treatment (Table 19, symbol P)", "type": "in vivo, common chickweed (Stellaria media)", "conditions": "amount of applied herbicide 320 g/ha", "procedure,_shortened": "as §2"}, "persian speedwell [13]": {"tested_on": "persian speedwell", "experiment": "Test Example 4: herbicidal effect by soil treatment (Table 19, symbol R)", "type": "in vivo, Persian speedwell (Veronica persica)", "conditions": "amount of applied herbicide 320 g/ha", "procedure,_shortened": "as §2"}, "southern crabgrass [14]": {"tested_on": "southern crabgrass", "experiment": "Test Example 5: herbicidal effect by foliage application, plastic box (Table 20, symbol F)", "type": "in vivo, southern crabgrass (Digitaria ciliaris)", "conditions": "foliage application, 320 g/ha, three weeks after application", "procedure,_shortened": "(§3)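 Foliar spray test: emulsion formulation diluted in water to a set application rate, sprayed onto 14-day-old plants raised in diluvial soil at 25° C to 30° C under glass. Both herbicidal effect and crop effect rated visually three weeks later.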"}, "green foxtail [15]": {"tested_on": "green foxtail", "experiment": "Test Example 5: herbicidal effect by foliage application, plastic box (Table 20, symbol G)", "type": "in vivo, green foxtail (Setaria viridis)", "conditions": "foliage application, 320 g/ha, three weeks after application", "procedure,_shortened": "as §3"}, "barnyard grass [16]": {"tested_on": "barnyard grass", "experiment": "Test Example 5: herbicidal effect by foliage application, plastic box (Table 20, symbol H)", "type": "in vivo, barnyard grass (Echinochloa crus-galli)", "conditions": "foliage application, 320 g/ha, three weeks after application", "procedure,_shortened": "as §3"}, "wild oat [17]": {"tested_on": "wild oat", "experiment": "Test Example 5: herbicidal effect by foliage application, plastic box (Table 20, symbol I)", "type": "in vivo, wild oat (Avena fatua)", "conditions": "foliage application, 320 g/ha, three weeks after application", "procedure,_shortened": "as §3"}, "blackgrass [18]": {"tested_on": "blackgrass", "experiment": "Test Example 5: herbicidal effect by foliage application, plastic box (Table 20, symbol J)", "type": "in vivo, blackgrass (Alopecurus myosuroides)", "conditions": "foliage application, 320 g/ha, three weeks after application", "procedure,_shortened": "as §3"}, "Italian ryegrass [19]": {"tested_on": "Italian ryegrass", "experiment": "Test Example 5: herbicidal effect by foliage application, plastic box (Table 20, symbol K)", "type": "in vivo, Italian ryegrass (Lolium multiflorum)", "conditions": "foliage application, 320 g/ha, three weeks after application", "procedure,_shortened": "as §3"}, "windgrass [20]": {"tested_on": "windgrass", "experiment": "Test Example 5: herbicidal effect by foliage application, plastic box (Table 20, symbol L)", "type": "in vivo, windgrass (Apera spica-venti)", "conditions": "foliage application, 320 g/ha, three weeks after application", "procedure,_shortened": "as §3"}, "velvetleaf [21]": {"tested_on": "velvetleaf", "experiment": "Test Example 5: herbicidal effect by foliage application, plastic box (Table 20, symbol M)", "type": "in vivo, velvetleaf (Abutilon theophrasti)", "conditions": "foliage application, 320 g/ha, three weeks after application", "procedure,_shortened": "as §3"}, "redroot pigweed [22]": {"tested_on": "redroot pigweed", "experiment": "Test Example 5: herbicidal effect by foliage application, plastic box (Table 20, symbol N)", "type": "in vivo, redroot pigweed (Amaranthus retroflexus)", "conditions": "foliage application, 320 g/ha, three weeks after application", "procedure,_shortened": "as §3"}, "lambsquarters [23]": {"tested_on": "lambsquarters", "experiment": "Test Example 5: herbicidal effect by foliage application, plastic box (Table 20, symbol O)", "type": "in vivo, lambsquarters (Chenopodium album)", "conditions": "foliage application, 320 g/ha, three weeks after application", "procedure,_shortened": "as §3"}, "chickweed [24]": {"tested_on": "chickweed", "experiment": "Test Example 5: herbicidal effect by foliage application, plastic box (Table 20, symbol P)", "type": "in vivo, common chickweed (Stellaria media)", "conditions": "foliage application, 320 g/ha, three weeks after application", "procedure,_shortened": "as §3"}, "false cleavers": {"tested_on": "false cleavers", "experiment": "Test Example 5: herbicidal effect by foliage application, plastic box (Table 20, symbol Q)", "type": "in vivo, false cleavers (Galium spurium)", "conditions": "foliage application, 320 g/ha, three weeks after application", "procedure,_shortened": "as §3"}, "persian speedwell [25]": {"tested_on": "persian speedwell", "experiment": "Test Example 5: herbicidal effect by foliage application, plastic box (Table 20, symbol R)", "type": "in vivo, Persian speedwell (Veronica persica)", "conditions": "foliage application, 320 g/ha, three weeks after application", "procedure,_shortened": "as §3"}},
  "data": [
    {"smiles": "CCCC(=O)Oc1c(C)nn(C)c(=O)c1-c1c(-c2ccc(C)c(C)c2)sc2ccccc12", "note": "[1-066]", "values": [
      {"measurement": "herbicidal effect on H (barnyard grass), rating 0-5", "setting": "barnyard grass [1]", "result": "2 (Herbicidal rate of 20% or more and less than 40%)"},
      {"measurement": "herbicidal effect on D (Chinese sprangletop), rating 0-5", "setting": "Chinese sprangletop", "result": "0 (Herbicidal rate of 5% or less (almost no effect))"},
      {"measurement": "herbicidal effect on E (rice flat sedge), rating 0-5", "setting": "rice flat sedge", "result": "5 (Herbicidal rate of 90% or more (almost completely withered))"},
      {"measurement": "herbicidal effect rating, F: southern crabgrass", "setting": "southern crabgrass [2]", "result": "0 (Herbicidal rate of 5% or less (almost no effect))"},
      {"measurement": "herbicidal effect rating, G: green foxtail", "setting": "green foxtail [3]", "result": "0 (Herbicidal rate of 5% or less (almost no effect))"},
      {"measurement": "herbicidal effect rating, H: barnyard grass", "setting": "barnyard grass [4]", "result": "0 (Herbicidal rate of 5% or less (almost no effect))"},
      {"measurement": "herbicidal effect rating, I: wild oat", "setting": "wild oat [5]", "result": "0 (Herbicidal rate of 5% or less (almost no effect))"},
      {"measurement": "herbicidal effect rating, J: blackgrass", "setting": "blackgrass [6]", "result": "0 (Herbicidal rate of 5% or less (almost no effect))"},
      {"measurement": "herbicidal effect rating, K: Italian ryegrass", "setting": "Italian ryegrass [7]", "result": "0 (Herbicidal rate of 5% or less (almost no effect))"},
      {"measurement": "herbicidal effect rating, L: windgrass", "setting": "windgrass [8]", "result": "0 (Herbicidal rate of 5% or less (almost no effect))"},
      {"measurement": "herbicidal effect rating, M: velvetleaf", "setting": "velvetleaf [9]", "result": "0 (Herbicidal rate of 5% or less (almost no effect))"},
      {"measurement": "herbicidal effect rating, N: redroot pigweed", "setting": "redroot pigweed [10]", "result": "0 (Herbicidal rate of 5% or less (almost no effect))"},
      {"measurement": "herbicidal effect rating, O: lambsquarters", "setting": "lambsquarters [11]", "result": "0 (Herbicidal rate of 5% or less (almost no effect))"},
      {"measurement": "herbicidal effect rating, P: chickweed", "setting": "chickweed [12]", "result": "2 (Herbicidal rate of 20% or more and less than 40%)"},
      {"measurement": "herbicidal effect rating, R: persian speedwell", "setting": "persian speedwell [13]", "result": "4 (Herbicidal rate of 70% or more and less than 90%)"},
      {"measurement": "herbicidal effect grade, F: southern crabgrass", "setting": "southern crabgrass [14]", "result": "2 (Herbicidal rate of 20% or more and less than 40%)"},
      {"measurement": "herbicidal effect grade, G: green foxtail", "setting": "green foxtail [15]", "result": "3 (Herbicidal rate of 40% or more and less than 70%)"},
      {"measurement": "herbicidal effect grade, H: barnyard grass", "setting": "barnyard grass [16]", "result": "2 (Herbicidal rate of 20% or more and less than 40%)"},
      {"measurement": "herbicidal effect grade, I: wild oat", "setting": "wild oat [17]", "result": "1 (Herbicidal rate of 5% or more and less than 20%)"},
      {"measurement": "herbicidal effect grade, J: blackgrass", "setting": "blackgrass [18]", "result": "0 (Herbicidal rate of 5% or less (almost no effect))"},
      {"measurement": "herbicidal effect grade, K: Italian ryegrass", "setting": "Italian ryegrass [19]", "result": "0 (Herbicidal rate of 5% or less (almost no effect))"},
      {"measurement": "herbicidal effect grade, L: windgrass", "setting": "windgrass [20]", "result": "0 (Herbicidal rate of 5% or less (almost no effect))"},
      {"measurement": "herbicidal effect grade, M: velvetleaf", "setting": "velvetleaf [21]", "result": "4 (Herbicidal rate of 70% or more and less than 90%)"},
      {"measurement": "herbicidal effect grade, N: redroot pigweed", "setting": "redroot pigweed [22]", "result": "4 (Herbicidal rate of 70% or more and less than 90%)"},
      {"measurement": "herbicidal effect grade, O: lambsquarters", "setting": "lambsquarters [23]", "result": "0 (Herbicidal rate of 5% or less (almost no effect))"},
      {"measurement": "herbicidal effect grade, P: chickweed", "setting": "chickweed [24]", "result": "5 (Herbicidal rate of 90% or more (almost completely withered))"},
      {"measurement": "herbicidal effect grade, Q: false cleavers", "setting": "false cleavers", "result": "2 (Herbicidal rate of 20% or more and less than 40%)"},
      {"measurement": "herbicidal effect grade, R: persian speedwell", "setting": "persian speedwell [25]", "result": "5 (Herbicidal rate of 90% or more (almost completely withered))"}
    ]}
  ]
}
